In ChEMBL document CHEMBL1153937, “Synthesis and antiviral evaluation of thieno[3,4-d]pyrimidine C-nucleoside analogues of 2',3'-dideoxy- and 2',3'-dideoxy-2',3'-didehydro-adenosine and -inosine” (Bioorg Med Chem, 2009):
Activity calls are given as the source filed them. The calls are words filed in the database; no cut-off is given here.

Tests used:
[1] = test system: Human immunodeficiency virus 1; assay: Antiviral activity against HIV1 BH10 in human MT4 cells assessed as inhibition of virus-induced cytopathogenicity after 4 days by MTS method; format: functional, organism-based, Human immunodeficiency virus type 1 BH10; settings: Human immunodeficiency virus 1, MT4, 96 h
[2] = Cytotoxicity against human MT4 cells by MTS method; format: cell-based
Yellow fever virus = assay: Antiviral activity against Yellow fever virus at 75 uM; format: functional, organism-based
Dengue virus = assay: Antiviral activity against Dengue virus at 75 uM; format: functional, organism-based
West Nile virus = assay: Antiviral activity against West Nile virus at 75 uM; format: functional, organism-based
L1210 = assay: Growth inhibition of mouse L1210 cells; format: functional, cell-based
CCRF S-180 = assay: Growth inhibition of mouse S180 cells; format: functional, cell-based
HL-60 = assay: Growth inhibition of human HL60 cells; format: functional, cell-based

Structure (SMILES) | EC50 [1] | CC50 [2] | Activity (Yellow fever virus) | Activity (Dengue virus) | Activity (West Nile virus) | IC50 (L1210) | IC50 (CCRF S-180) | IC50 (HL-60)
O=c1[nH]cnc2c([C@@H]3O[C@H](CO)[C@@H](O)[C@H]3O)scc12 | > 100 µM | > 100 µM | inactive | inactive | inactive |  |  | 
OC[C@@H]1CC[C@H](c2scc3c(O)ncnc23)O1 | > 100 µM | > 100 µM | inactive | inactive | inactive |  |  | 
Cc1cn([C@H]2C[C@H](N=[N+]=[N-])[C@@H](CO)O2)c(=O)[nH]c1=O [ZIDOVUDINE] | 0.009 µM | 61 µM |  |  |  |  |  | 
OC[C@@H]1C=C[C@H](c2scc3c(O)ncnc23)O1 | > 100 µM | > 100 µM | inactive | inactive | inactive |  |  | 
CSc1ncnc2c([C@H]3C=C[C@@H](CO)O3)scc12 | > 70 µM | 70 µM | inactive | inactive | inactive |  |  | 
Nc1ncnc2c([C@H]3C=C[C@@H](CO)O3)scc12 | > 7.3 µM | 7.3 µM | inactive | inactive | inactive |  |  | 
Nc1ncnc2c([C@H]3CC[C@@H](CO)O3)scc12 | > 75 µM | > 75 µM | inactive | inactive | inactive |  |  | 
OC[C@H]1O[C@@H](c2scc3c(=S)[nH]cnc23)[C@H](O)[C@@H]1O | > 2.9 µM | 2.9 µM | inactive | inactive | inactive | 17.6 µM | 29.1 µM | 8.17 µM
